Measurements taken from patent US8030498B2, “Benzoylpyrazole compounds and herbicides containing them” (Ishihara Sangyo Kaisha, Ltd., priority 2005, dated 2011).

Assays:
[1] = test system: barnyardgrass (Echinochloa crus-galli L.); assay: Test Example 1: foliar treatment, growth inhibition rate, barnyardgrass; type: in vivo; settings: visually observed 17th to 23rd day after application
Summary of the method: (§1)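 Potted upland soil; compounds as wettable powders or emulsifiable concentrates diluted in water at 500 L/ha plus 0.1 vol % spreader, foliar-sprayed at defined leaf stages (rice 1.0–2.5, wheat 1.7–3.4, corn 2.0–3.5, greenfoxtail 1.0–3.0). Growth inhibition (0–100%) scored visually 17–23 days after application.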

[2] = test system: crabgrass (Digitaria sanguinalis L.); assay: Test Example 1: foliar treatment, growth inhibition rate, crabgrass; type: in vivo; settings: visually observed 17th to 23rd day after application
Summary of the method: (§2)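 Visual scoring of growth inhibition, 0% (untreated) to 100% (complete kill), on days 17–23 following post-emergence spray of formulated compound in water (500 L/ha, 0.1 vol % spreader); plants treated at set leaf stages, e.g. corn 2.0–3.5, wheat 1.7–3.4.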

[3] = test system: greenfoxtail (Setaria viridis L.); assay: Test Example 1: foliar treatment, growth inhibition rate, greenfoxtail; type: in vivo; settings: visually observed 17th to 23rd day after application
Summary of the method: (§3)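 Plants grown in upland soil in pots were sprayed on the foliage at set leaf stages (corn 2.0–3.5, greenfoxtail 1.0–3.0, rice 1.0–2.5, wheat 1.7–3.4 leaves) with wettable powder or emulsifiable concentrate formulations diluted in water at 500 L/ha plus 0.1 vol % spreader. Growth inhibition was scored visually 17–23 days later.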

[4] = test system: redroot pigweed (Amaranthus retroflexus L.); assay: Test Example 1: foliar treatment, growth inhibition rate, redroot pigweed; type: in vivo; settings: visually observed 17th to 23rd day after application
Summary of the method: as §2

[5] = test system: prickly sida (Sida spinosa L.); assay: Test Example 1: foliar treatment, growth inhibition rate, prickly sida; type: in vivo; settings: visually observed 17th to 23rd day after application
Summary of the method: as §2

[6] = test system: velvetleaf (Abutilon theophrasti MEDIC.); assay: Test Example 1: foliar treatment, growth inhibition rate, velvetleaf; type: in vivo; settings: visually observed 17th to 23rd day after application
Summary of the method: as §1

[7] = test system: rice (Oryza sativa L.); assay: Test Example 1: foliar treatment, growth inhibition rate, rice; type: in vivo; settings: visually observed 17th to 23rd day after application
Summary of the method: as §3

[8] = test system: wheat (Triticum spp.); assay: Test Example 1: foliar treatment, growth inhibition rate, wheat; type: in vivo; settings: visually observed 17th to 23rd day after application
Summary of the method: as §3

[9] = test system: corn (Zea mays L.); assay: Test Example 1: foliar treatment, growth inhibition rate, corn; type: in vivo; settings: visually observed 17th to 23rd day after application
Summary of the method: as §3

[10] = test system: soybean (Glycine max Merr.); assay: Test Example 1: foliar treatment, growth inhibition rate, soybean; type: in vivo; settings: visually observed 17th to 23rd day after application
Summary of the method: as §2

[11] = test system: barnyardgrass; assay: Test Example 2: soil application on the day after sowing, growth inhibition rate, barnyardgrass; type: in vivo, Echinochloa crus-galli L.; settings: 250 g/ha active ingredient, observed on 19th to 24th day
Summary of the method: (§4)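 Seeds were sown in upland field soil in pots, and on the following day compounds formulated as wettable powders or emulsifiable concentrates were diluted in water (500 liter per hectare) and sprayed onto the soil at prescribed active-ingredient doses. Growth was scored visually 19–24 days later, 0 = untreated to 100% = complete kill.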

[12] = test system: crabgrass; assay: Test Example 2: soil application on the day after sowing, growth inhibition rate, crabgrass; type: in vivo, Digitaria sanguinalis L.; settings: 250 g/ha active ingredient, observed on 19th to 24th day
Summary of the method: as §4

[13] = test system: greenfoxtail; assay: Test Example 2: soil application on the day after sowing, growth inhibition rate, greenfoxtail; type: in vivo, Setaria viridis L.; settings: 250 g/ha active ingredient, observed on 19th to 24th day
Summary of the method: as §4

[14] = test system: redroot pigweed; assay: Test Example 2: soil application on the day after sowing, growth inhibition rate, redroot pigweed; type: in vivo, Amaranthus retroflexus L.; settings: 250 g/ha active ingredient, observed on 19th to 24th day
Summary of the method: as §4

[15] = test system: prickly sida; assay: Test Example 2: soil application on the day after sowing, growth inhibition rate, prickly sida; type: in vivo, Sida spinosa L.; settings: 250 g/ha active ingredient, observed on 19th to 24th day
Summary of the method: as §4

[16] = test system: velvetleaf; assay: Test Example 2: soil application on the day after sowing, growth inhibition rate, velvetleaf; type: in vivo, Abutilon theophrasti MEDIC.; settings: 250 g/ha active ingredient, observed on 19th to 24th day
Summary of the method: as §4

[17] = test system: rice; assay: Test Example 2: soil application on the day after sowing, growth inhibition rate, rice; type: in vivo, Oryza sativa L.; settings: 250 g/ha active ingredient, observed on 19th to 24th day
Summary of the method: as §4

[18] = test system: wheat; assay: Test Example 2: soil application on the day after sowing, growth inhibition rate, wheat; type: in vivo, Triticum spp.; settings: 250 g/ha active ingredient, observed on 19th to 24th day
Summary of the method: as §4

[19] = test system: corn; assay: Test Example 2: soil application on the day after sowing, growth inhibition rate, corn; type: in vivo, Zea mays L.; settings: 250 g/ha active ingredient, observed on 19th to 24th day
Summary of the method: as §4

[20] = test system: soybean; assay: Test Example 2: soil application on the day after sowing, growth inhibition rate, soybean; type: in vivo, Glycine max Merr.; settings: 250 g/ha active ingredient, observed on 19th to 24th day
Summary of the method: as §4

| SMILES | Growth inhibition rate (%) Barnyardgrass [11] | Growth inhibition rate (%) Crabgrass [12] | Growth inhibition rate (%) Greenfoxtail [13] | Growth inhibition rate (%) redroot pigweed [14] | Growth inhibition rate (%) Prickly sida [15] | Growth inhibition rate (%) Velvetleaf [16] | Growth inhibition rate (%) Rice [17] | Growth inhibition rate (%) Wheat [18] | Growth inhibition rate (%) Corn [19] | Growth inhibition rate (%) Soybean [20] | Growth inhibition rate (%) Barnyardgrass ([1]; 31 g/ha active ingredient) | Growth inhibition rate (%) Crabgrass ([2]; 31 g/ha active ingredient) | Growth inhibition rate (%) Greenfoxtail ([3]; 31 g/ha active ingredient) | Growth inhibition rate (%) redroot pigweed ([4]; 31 g/ha active ingredient) | Growth inhibition rate (%) Prickly sida ([5]; 31 g/ha active ingredient) | Growth inhibition rate (%) Velvetleaf ([6]; 31 g/ha active ingredient) | Growth inhibition rate (%) Rice ([7]; 31 g/ha active ingredient) | Growth inhibition rate (%) Wheat ([8]; 31 g/ha active ingredient) | Growth inhibition rate (%) Corn ([9]; 31 g/ha active ingredient) | Growth inhibition rate (%) Soybean ([10]; 31 g/ha active ingredient) | also measured |
| --- | --- | --- | --- | --- | --- | --- | --- | --- | --- | --- | --- | --- | --- | --- | --- | --- | --- | --- | --- | --- | --- |
| CCSC(=O)Oc1c(C(=O)c2ccc(S(C)(=O)=O)c(OCCC3OCCO3)c2Cl)cnn1CC [compound 221] | 80% | 100% | 70% | 100% | 60% | 60% | 80% | 0% | 0% | 0% |  |  |  |  |  |  |  |  |  |  | Growth inhibition rate (%) Barnyardgrass ([1]; 63 g/ha active ingredient): 100%; Growth inhibition rate (%) Crabgrass ([2]; 63 g/ha active ingredient): 50%; Growth inhibition rate (%) Greenfoxtail ([3]; 63 g/ha active ingredient): 50%; Growth inhibition rate (%) redroot pigweed ([4]; 63 g/ha active ingredient): 80%; Growth inhibition rate (%) Prickly sida ([5]; 63 g/ha active ingredient): 40%; Growth inhibition rate (%) Velvetleaf ([6]; 63 g/ha active ingredient): 60%; Growth inhibition rate (%) Rice ([7]; 63 g/ha active ingredient): 20%; Growth inhibition rate (%) Wheat ([8]; 63 g/ha active ingredient): 0%; Growth inhibition rate (%) Corn ([9]; 63 g/ha active ingredient): 0%; Growth inhibition rate (%) Soybean ([10]; 63 g/ha active ingredient): 100% |
| CCC(C)SC(=O)Oc1c(C(=O)c2ccc(S(C)(=O)=O)c(C(=O)OC)c2C)cnn1C (stereo not drawn) [compound 88] | 100% | 100% | 98% | 100% | 95% | 100% | 95% | 0% | 0% | 0% | 98% | 95% | 100% | 95% | 90% | 95% | 95% | 10% | 20% | 95% |  |
| COCCOc1c(S(C)(=O)=O)ccc(C(=O)c2cnn(C)c2OC(=O)SC(C)C)c1C [compound 207] | 100% | 100% | 100% | 100% | 60% | 100% | 98% | 0% | 0% | 20% | 95% | 95% | 100% | 100% | 60% | 100% | 70% | 0% | 0% | 100% |  |
| CCCOc1c(S(C)(=O)=O)ccc(C(=O)c2cnn(CC)c2OC(=O)SCC)c1C [compound 67] | 60% | 70% | 40% | 50% | 70% | 60% | 60% | 0% | 0% | 20% | 95% | 98% | 100% | 95% | 60% | 90% | 60% | 10% | 10% | 90% |  |
| CCOC(=O)c1c(S(C)(=O)=O)ccc(C(=O)c2cnn(CC)c2OC(=O)SCC)c1Cl [compound 59] | 100% | 100% | 100% | 100% | 98% | 100% | 80% | 10% | 0% | 10% | 90% | 80% | 70% | 80% | 80% | 75% | 50% | 10% | 0% | 70% |  |
| CCCSC(=O)Oc1c(C(=O)c2ccc(S(C)(=O)=O)c(OCCOC)c2C)cnn1C [compound 219] | 100% | 100% | 100% | 100% | 80% | 100% | 95% | 0% | 0% | 0% | 100% | 100% | 100% | 100% | 70% | 100% | 80% | 0% | 0% | 100% |  |
| COC(=O)c1c(S(C)(=O)=O)ccc(C(=O)c2cnn(C)c2OC(=O)SC(C)(C)C)c1C [compound 90] | 100% | 100% | 100% | 100% | 98% | 100% | 100% | 0% | 10% | 30% | 80% | 60% | 95% | 80% | 75% | 95% | 40% | 0% | 0% | 80% |  |
| CCC(C)SC(=O)Oc1c(C(=O)c2ccc(S(C)(=O)=O)c(C(=O)OC)c2C)cnn1CC (stereo not drawn) [compound 89] | 70% | 95% | 80% | 90% | 50% | 70% | 80% | 0% | 0% | 0% | 100% | 100% | 100% | 90% | 60% | 100% | 100% | 20% | 20% | 95% |  |
| C#CCOc1c(S(C)(=O)=O)ccc(C(=O)c2cnn(C)c2OC(=O)SCC)c1C [compound 222] | 95% | 100% | 80% | 100% | 50% | 80% | 90% | 0% | 0% | 0% | 90% | 70% | 80% | 100% | 30% | 60% | 70% | 0% | 0% | 100% |  |
